Reference: patent US20260216347A1, “Substituted Imidazo-Based Compounds as Ligand Directed Degraders of IRAK3” (Celgene Corporation, priority 2022, published 2026)
pIC50: −log10 of the molar value.

How the values were obtained:
IRAK3 = target: T1, IRAK3 (Homo sapiens, UniProt Q9Y616); assay: IRAK3 biochemical binding assay (LanthaScreen Eu Kinase Binding, TR-FRET)
T1 construct: IRAK Endogenous HTRF Degradation Assay; endogenous in cells
T1 sequence (Q9Y616 1-596): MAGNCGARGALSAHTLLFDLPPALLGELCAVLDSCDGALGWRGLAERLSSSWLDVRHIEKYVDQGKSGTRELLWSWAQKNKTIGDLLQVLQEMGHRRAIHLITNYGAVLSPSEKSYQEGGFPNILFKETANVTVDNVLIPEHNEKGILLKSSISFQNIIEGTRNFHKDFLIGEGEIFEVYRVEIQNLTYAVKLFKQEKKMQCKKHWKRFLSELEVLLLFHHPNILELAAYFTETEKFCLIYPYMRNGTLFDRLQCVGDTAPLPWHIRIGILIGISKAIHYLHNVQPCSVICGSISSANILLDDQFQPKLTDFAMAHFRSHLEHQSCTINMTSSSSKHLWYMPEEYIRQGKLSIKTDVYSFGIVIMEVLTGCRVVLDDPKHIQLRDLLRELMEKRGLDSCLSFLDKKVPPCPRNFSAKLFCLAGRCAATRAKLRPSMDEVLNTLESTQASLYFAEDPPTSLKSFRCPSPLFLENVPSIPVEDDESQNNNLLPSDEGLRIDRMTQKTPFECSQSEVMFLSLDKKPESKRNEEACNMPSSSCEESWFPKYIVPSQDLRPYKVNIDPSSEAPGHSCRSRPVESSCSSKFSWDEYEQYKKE
Description: Example B3. IRAK3 Biochemical Binding Assay
The LanthaScreen® Eu Kinase Binding assay was performed as described by the vendor (ThermoFisher Scientific Waltham, MA). Briefly, 100× solutions of compound were prepared in DMSO via serial dilution of the 10 mM stock solution in a 384-well reagent plate using 3-fold intervals to achieve final concentrations. 1 μL of the compound dilution series were added to the corresponding wells of a 384-well reagent plate containing 32.3 μL of 1× buffer (50 mM HEPES pH 7.4, […], 1 mM EGTA, 0.01% Brij-35). 5 μL of the buffer diluted compounds were transferred to the corresponding wells of a 384-well assay plate. 5 μL of 3× tracer was transferred to each well of the assay plate for a final tracer concentration of 10 nM. Finally, 5 μL of the 3×Eu-Anti-GST and IRAK3 mix was transferred to each well for a final concentration of 2 nM and 10 nM respectively. Reactions were allowed to incubate for 1 hour at room temperature. TR-FRET signal of the interaction (λex340/λem 665/λem 615) was read at room temperature with a delay time of 100 ρs and an integration time of 200 ρs using an Envision plate reader. Background corrected emission signal ratios at each compound concentration were used to calculate percentage of inhibition (% Inhibition). Plots of % Inhibition versus inhibitor concentrations were fit according to a dose-response equation (Eq. 1) to generate IC50 and Hill slope values using Dotmatics software (Dotmatics, Bishops Stortford, Hertfordshire, England).
Using these assays, IC50, Dmax, EC50, and DC50 values of the following compounds were determined. Dmax is defined as the maximum percent degradation achieved and DC50 is the concentration at which 50% degradation is achieved.

IRAK3-ePL = target: T2, IRAK3-ePL (Homo sapiens, UniProt Q9Y616); assay: IRAK3-ePL overexpressing degradation assay (InCELL Hunter luminescence, dose response); type: cell-based; details: for IRAK3 ePL degradation Ymin: lowest percentage of target protein remaining following compound treatment; for DC50: read-out: IRAK3 ePL degradation EC50
T2 construct: expressed in transfected cells; host or cells: 293T CRBN OE/GSPT1 G575N KI cells, lentiviral transduction, puromycin selected
Description: Example B1. IRAK3-ePL Overexpressing Degradation Assay
Stable cell lines were generated by the following protocol. 3×10^5 Lenti-X 293T cells (Clonetech) were plated in 0.8 mL of media in a 12-well plate and incubated overnight at 37° C./5% CO2. Packaging plasmid (0.4 μg, pMD), envelope plasmid (0.4 μg, pSP), and lentiviral transfer IRAK3-ePL plasmid (0.8 μg, TRAK3 sequence NM_007199.3) were mixed in 0.1 mL of Opti-MEM and incubated for 5 min. Simultaneously, 2.4 μL of Lipofectamine 2000 (Invitrogen) was added to 0.1 mL of Opti-MEM (Gibco) and incubated for 5 min. The plasmid DNA and lipofectamine were combined and the mixture was allowed to incubate for 20 min.DNA:Lipofectamine Opti-MEM mixtures were then added to previously plated cells dropwise and the cells were incubated for ~16 h at 37° C./5% CO2. Following incubation, the media was removed and 1.2 mL of fresh media was added per well. Lenti-X 293T cells were incubated for ~30 h at 37° C./5% CO2. […] Following incubation, media was removed from the Lenti-X 293T wells and passed through a […] filter. Part of the viral supernatant was used to transduce cells and the rest was stored at −80° C. Viruses were then added individually (0.5 mL virus) to each well of the 293T^CRBN OE/GSPT1 G575N KI cells, followed by addition of polybrene (10 mg/mL Millipore) to each well at a final concentration of 5.0 μg/mL. Cells were incubated for ~24 h at 37° C./5% CO2. After aspirating media off plates, cells were washed with DPBS, trypsinized and plated in a 10 cm dish in 15 mL of media and […] puromycin. Following incubation of cells for ~72 h at 37° C./5% CO2, media was aspirated off plates, and cells were washed with DPBS and trypsinized. The cells were plated in a 15 cm dish in 40 mL of media with 1.0 μg/mL Puromycin (Gibco) and incubated for ~72 h at 37° C./5% CO2. Following incubation, media was removed and cells were washed with DPBS and trypsinized. The majority of cells were resuspended in Invitrogen freezing media and stored away (~6-8×10^6 cells/vial).
IRAK3-ePL cellular dose response curve degradation assays were performed by the following protocol. Compounds to be tested were dispensed into a white 384-well tissue-culture treated plate using an acoustic liquid handler. Dilutions were prepared based on a 25 μL assay volume in duplicate 10 point 3-fold serial dilutions starting with a 10 μM dose. Negative control wells were included, which only contain 0.2% DMSO to calculate 100% signal. Positive control wells containing 30 μM Ataluren (luciferase inhibitor) were included to calculate the background signal level. All wells were backfilled to a final DMSO concentration of 0.2% to ensure DMSO uniformity across wells. IRAK3-ePL expressing cells (IRAK3-ePL Lenti-X 293T^CRBN/GSPT1 G575N) were washed, trypsinized, counted, and resuspended in fresh DMEM (Gibco) to give a cell concentration of 200,000 cells/mL. 25 μL of cells (5,000 cells/well) were dispensed into the wells of the 384-well plate prespotted with compounds in the previous step and incubated overnight at 37° C./5% CO2. Following incubation, the 384-well plate was taken out of the incubator and left at room temperature for 30 min. InCELL hunter reagent was prepared according to manufacturer's instructions (EA reagent, lysis buffer, and substrate reagent in a 1:1:4 ratio, Cat #96-0002, DiscoverX), which was added to the 384-well plate 25 μL per well. Following the incubation of the plate for 1 h at room temperature, the luminescence signal was read using a ViewLux plate reader. Data was processed and analyzed in ActivityBase software. In short, the average luminescence values of the positive control wells were subtracted from the rest of the wells for background correction, and all luminescence values were normalized to the DMSO control wells. The average value of the DMSO control wells was set to equal 100% of the relative IRAK3-ePL protein levels. […]

| pIC50 (IRAK3) | IRAK3 ePL degradation Ymin (IRAK3-ePL) [%] | DC50 (IRAK3-ePL) [nM] | SMILES |
| --- | --- | --- | --- |
| 10.00 | – | – | O=C1CCC(c2ccc(N3CCN(CC[C@H]4CC[C@H](n5cc(Nc6ncc(-c7cnn8c7CCCC8)n7ccnc67)cn5)CC4)CC3)cc2)C(=O)N1 (some centres unmarked) [Compound 118] |
| 8.77 | – | – | O=C1CCC(c2ccc(N3CCN(CCN4CCC(n5cc(Nc6ncc(-c7cnn(C8CC8)c7)n7ccnc67)cn5)CC4)CC3)cc2)C(=O)N1 (centres unmarked) [Compound 119, 3-(4-(4-(2-(4-(4-((5-(1-cyclopropyl-1H-pyrazol-4-yl)imidazo[1,2-a]pyrazin-8-yl)amino)-1H-pyrazol-1-yl)piperidin-1-yl)ethyl)piperazin-1-yl)phenyl) piperidine-2,6-dione] |
| 9.52 | – | – | Cc1cc(-c2cnc(Nc3cnn([C@H]4CC[C@H](CCN5CC6(C5)CN(c5ccc(C7CCC(=O)NC7=O)cc5)C6)CC4)c3)c3nccn23)c(F)cc1F (some centres unmarked) [Compound 104] |
| 8.82 | – | – | O=C1CCC(c2ccc(N3CCN(CC[C@H]4CC[C@H](n5cc(Nc6ncc(-c7cn[nH]c7)n7ccnc67)cn5)CC4)CC3)cc2)C(=O)N1 (stereo partly drawn) [Compound 120, 3-(4-(4-(2-((trans)-4-(4-((5-(1H-pyrazol-4-yl)imidazo[1,2-a]pyrazin-8-yl)amino)-1H-pyrazol-1-yl)cyclohexyl)ethyl)piperazin-1-yl)phenyl) piperidine-2,6-dione] |
| – | 24 | 0.51 | O=C1CCC(c2ccc(N3CCN(CCN4CCC(n5cc(Nc6ncc(C7CC7)n7ccnc67)cn5)CC4)CC3)cc2)C(=O)N1 (centres unmarked) [Compound 46, 3-(4-(4-(2-(4-(4-((5-cyclopropylimidazo[1,2-a]pyrazin-8-yl)amino)-1H-pyrazol-1-yl)piperidin-1-yl)ethyl)piperazin-1-yl)phenyl) piperidine-2,6-dione] |
| – | 24 | 0.77 | CN1CCOc2ccc(-c3cnc(Nc4cnn(C5CCN(CCN6CCN(c7ccc(C8CCC(=O)NC8=O)cc7)CC6)CC5)c4)c4nccn34)cc21 (centres unmarked) [Compound 48, 3-(4-(4-(2-(4-(4-((5-(4-methyl-3,4-dihydro-2H-benzo[b][1,4]oxazin-6-yl)imidazo[1,2-a]pyrazin-8-yl)amino)-1H-pyrazol-1-yl)piperidin-1-yl)ethyl)piperazin-1-yl)phenyl) piperidine-2,6-dione] |
| – | 24 | 2.4 | Cc1cc(-c2cnc(Nc3cnn(C4CCN(CCN5CCN(c6ccc(C7CCC(=O)NC7=O)cc6F)CC5)CC4)c3)c3nccn23)c(F)cc1F (centres unmarked) [Compound 49, 3-(4-(4-(2-(4-(4-((5-(2,4-difluoro-5-methylphenyl)imdazo [1,2-a]pyrazin-8-yl)amino)-1H-pyrazol-1-yl)piperidin-1-yl)ethyl)piperazin-1-yl)-3-fluorophenyl)piper idine-2,6-dione] |
| – | 24 | 2.8 | Cc1cc(-c2cnc(Nc3cnn(C4CCN(CCN5CCN(c6ccc(C7CCC(=O)NC7=O)cc6Cl)CC5)CC4)c3)c3nccn23)c(F)cc1F (centres unmarked) [Compound 43, 3-(3-chloro-4-(4-(2-(4-(4-((5-(2,4-difluoro-5-methylphenyl)imdazo [1,2-a]pyrazin-8-yl)amino)-1H-pyrazol-1-yl)piperidin-1-yl)ethyl)piperazin-1-yl)phenyl) piperidine-2,6-dione] |
| – | 23 | 0.61 | O=C1CCC(c2ccc(N3CCN(CC[C@H]4CC[C@H](n5cc(Nc6ncc(C7CC7)n7ccnc67)cn5)CC4)CC3)cc2)C(=O)N1 (stereo partly drawn) [Compound 47, 3-(4-(4-(2-((trans)-4-(4-((5-cyclopropylimidazo[1,2-a]pyrazin-8-yl)amino)-1H-pyrazol-1-yl)cyclohexyl)ethyl)piperazin-1-yl)phenyl) piperidine-2,6-dione] |
| – | 24 | 0.54 | O=C1CCC(c2ccc(N3CCN(CCN4CCC(n5cc(Nc6ncc(C7=CCCC7)n7ccnc67)cn5)CC4)CC3)cc2)C(=O)N1 (centres unmarked) [Compound 68, 3-(4-(4-(2-(4-(4-((5-(cyclopent-1-en-1-yl)imidazo[1,2-a]pyrazin-8-yl)amino)-1H-pyrazol-1-yl)piperidin-1-yl)ethyl)piperazin-1-yl)phenyl) piperidine-2,6-dione] |

| SMILES | pIC50 (IRAK3) | IRAK3 ePL degradation Ymin (IRAK3-ePL) [%] | DC50 (IRAK3-ePL) [nM] |
| --- | --- | --- | --- |
| Cc1cc(-c2cnc(Nc3cnn([C@H]4C[C@H](CCN5CCN(c6ccc(C7CCC(=O)NC7=O)cc6)CC5)C4)c3)c3nccn23)c(F)cc1F (stereo partly drawn) [Compound 66, 3-(4-(4-(2-((trans)-3-(4-((5-(2,4-difluoro-5-methylphenyl)imidazo[1,2-a]pyrazin-8-yl)amino)-1H-pyrazol-1-yl)cyclobutyl)ethyl)piperazin-1-yl)phenyl) piperidine-2,6-dione] | – | 32 | 9.6 |
| Cc1cc(-c2cnc(Nc3cnn([C@H]4CC[C@H](CN5CCN(c6ccc(C7CCC(=O)NC7=O)cc6)CC5)CC4)c3)c3nccn23)c(F)cc1F (stereo partly drawn) [Compound 67, 3-(4-(4-(((trans)-4-(4-((5-(2,4-difluoro-5-methylphenyl)imidazo[1,2-a]pyrazin-8-yl)amino)-1H-pyrazol-1-yl)cyclohexyl)methyl)piperazin-1-yl)phenyl) piperidine-2,6-dione] | – | 38 | 5.5 |
